Results: US20100267561A1, “HERBICIDAL PYRIDAZINONE DERIVATIVES” (priority 2007, published 2010)

Legend:
Format in all cases: in vivo
[1] = test system: canarygrass (Phalaris minor); assay: Test B postemergence plant response; details: for Canarygrass plant response rating: 8 g ai/ha, postemergence, 0-100 scale; for Plant response rating, Canarygrass: Postemergence
Summary of the method: (§1)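 Visual injury score from 0 (none) to 100 (complete control) versus controls, taken 13 to 15 days after treatment in the greenhouse; chemicals applied postemergence, as formulated, to plants of 1- to 4-leaf stage (2 to 18 cm tall); dash denotes no test result.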

[2] = test system: chickweed (Stellaria media); assay: Test B postemergence plant response; details: for Chickweed plant response rating: 8 g ai/ha, postemergence, 0-100 scale; for Plant response rating, Chickweed: Postemergence
Summary of the method: as §1

[3] = test system: windgrass (Apera spica-venti); assay: Test B postemergence plant response; details: for Windgrass plant response rating: 8 g ai/ha, postemergence, 0-100 scale; for Plant response rating, Windgrass: Postemergence
Summary of the method: as §1

[4] = test system: winter barley (Hordeum vulgare); assay: Test B postemergence plant response; details: for Barley plant response rating: 8 g ai/ha, postemergence, 0-100 scale; for Plant response rating, Barley: Postemergence, scale 0 to 100, 0 no effect, 100 complete control
Summary of the method: as §1

[5] = test system: Italian ryegrass (Lolium multiflorum); assay: Test C pre-/postemergence plant response
Summary of the method: (§2)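 Pre/post spray; solvent blend non-phytotoxic, with surfactant; post stage 1–4 leaves (2–18 cm); controlled environment 15–25 d; visual score 0–100 relative to controls, 100 = complete control.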

[6] = test system: annual bluegrass (Poa annua); assay: Test C pre-/postemergence plant response
Summary of the method: as §2

[7] = test system: blackgrass (Alopecurus myosuroides); assay: Test C pre-/postemergence plant response
Summary of the method: as §2

[8] = test system: canarygrass (Phalaris minor); assay: Test C pre-/postemergence plant response; details: Preemergence
Summary of the method: as §2

[9] = test system: downy bromegrass (Bromus tectorum); assay: Test C pre-/postemergence plant response
Summary of the method: as §2

[10] = test system: green foxtail (Setaria viridis); assay: Test C pre-/postemergence plant response
Summary of the method: as §2

[11] = test system: pigweed (Amaranthus retroflexus); assay: Test C pre-/postemergence plant response
Summary of the method: as §2

[12] = test system: spring barley (Hordeum vulgare); assay: Test C pre-/postemergence plant response
Summary of the method: as §2

[13] = test system: wild mustard (Sinapis arvensis); assay: Test C pre-/postemergence plant response
Summary of the method: as §2

wild oat (Avena fatua) = assay: Test C pre-/postemergence plant response
Summary of the method: as §2

[14] = test system: windgrass (Apera spica-venti); assay: Test C pre-/postemergence plant response
Summary of the method: as §2

[15] = test system: winter barley (Hordeum vulgare); assay: Test C pre-/postemergence plant response
Summary of the method: as §2

[16] = test system: winter wheat (Triticum aestivum); assay: Test C pre-/postemergence plant response
Summary of the method: as §2

[17] = 62 g ai/ha, scale 0 to 100, 0 no effect, 100 complete control
[18] = Postemergence, 8 g ai/ha, scale 0 to 100, 0 no effect, 100 complete control
[19] = Postemergence, 16 g ai/ha, scale 0 to 100, 0 no effect, 100 complete control
[20] = Postemergence, 31 g ai/ha, scale 0 to 100, 0 no effect, 100 complete control
[21] = Postemergence, 62 g ai/ha, scale 0 to 100, 0 no effect, 100 complete control
[22] = Preemergence, 8 g ai/ha, scale 0 to 100 (0 no effect, 100 complete control)
[23] = Preemergence, 16 g ai/ha, scale 0 to 100 (0 no effect, 100 complete control)
[24] = Preemergence, 31 g ai/ha, scale 0 to 100 (0 no effect, 100 complete control)
[25] = Preemergence, 62 g ai/ha, scale 0 to 100, 0 no effect, 100 complete control
[26] = 8 g ai/ha, scale 0 to 100 (0 no effect, 100 complete control)
[27] = 16 g ai/ha, scale 0 to 100 (0 no effect, 100 complete control)
[28] = 31 g ai/ha, scale 0 to 100 (0 no effect, 100 complete control)
[29] = 31 g ai/ha, scale 0 to 100, 0 no effect, 100 complete control

CCOC(=O)Oc1cnn(C)c(=O)c1-n1nc(-c2ccc(Cl)cc2)cc1C [Compound 53]
Canarygrass plant response rating [1]: 0
Plant response rating, Canarygrass ([1]; 16 g ai/ha, scale 0 to 100): 0
Plant response rating, Canarygrass ([1]; 31 g ai/ha, scale 0 to 100): 0
Plant response rating, Canarygrass [1, 17]: 0
Chickweed plant response rating [2]: 0
Plant response rating, Chickweed ([2]; 16 g ai/ha, scale 0 to 100): 0
Plant response rating, Chickweed ([2]; 31 g ai/ha, scale 0 to 100): 0
Plant response rating, Chickweed [2, 17]: 0
Windgrass plant response rating [3]: 0
Plant response rating, Windgrass ([3]; 16 g ai/ha, scale 0 to 100): 20
Plant response rating, Windgrass ([3]; 31 g ai/ha, scale 0 to 100): 40
Plant response rating, Windgrass [3, 17]: 60
Barley plant response rating [4]: 0
Plant response rating, Barley ([4]; 16 g ai/ha): 0
Plant response rating, Barley ([4]; 31 g ai/ha): 0
Plant response rating, Barley ([4]; 62 g ai/ha): 0
Plant response rating, Ryegrass, Italian [5, 18]: 75
Plant response rating, Ryegrass, Italian [5, 19]: 100
Plant response rating, Ryegrass, Italian [5, 20]: 100
Plant response rating, Ryegrass, Italian [5, 21]: 100
Plant response rating, Ryegrass, Italian [5, 22]: 25
Plant response rating, Ryegrass, Italian [5, 23]: 100
Plant response rating, Ryegrass, Italian [5, 24]: 100
Plant response rating, Ryegrass, Italian [5, 25]: 100
Plant response rating, Bluegrass [6, 18]: 0
Plant response rating, Bluegrass [6, 19]: 0
Plant response rating, Bluegrass [6, 20]: 0
Plant response rating, Bluegrass [6, 21]: 35
Plant response rating, Bluegrass [6, 22]: 0
Plant response rating, Bluegrass [6, 23]: 20
Plant response rating, Bluegrass [6, 24]: 40
Plant response rating, Bluegrass [6, 25]: 65
Plant response rating, Blackgrass [7, 18]: 65
Plant response rating, Blackgrass [7, 19]: 100
Plant response rating, Blackgrass [7, 20]: 100
Plant response rating, Blackgrass [7, 21]: 100
Plant response rating, Blackgrass [7, 22]: 70
Plant response rating, Blackgrass [7, 23]: 75
Plant response rating, Blackgrass [7, 24]: 98
Plant response rating, Blackgrass [7, 25]: 98
Plant response rating, Canarygrass [8, 26]: 0
Plant response rating, Canarygrass [8, 27]: 0
Plant response rating, Canarygrass [8, 28]: 95
Plant response rating, Canarygrass [8, 17]: 95
Plant response rating, Bromegrass, Downy [9, 18]: 0
Plant response rating, Bromegrass, Downy [9, 19]: 20
Plant response rating, Bromegrass, Downy [9, 20]: 30
Plant response rating, Bromegrass, Downy [9, 21]: 90
Plant response rating, Bromegrass, Downy [9, 22]: 10
Plant response rating, Bromegrass, Downy [9, 23]: 20
Plant response rating, Bromegrass, Downy [9, 24]: 80
Plant response rating, Bromegrass, Downy [9, 25]: 85
Plant response rating, Foxtail, Green [10, 18]: 95
Plant response rating, Foxtail, Green [10, 19]: 98
Plant response rating, Foxtail, Green [10, 20]: 100
Plant response rating, Foxtail, Green [10, 21]: 100
Plant response rating, Foxtail, Green [10, 22]: 90
Plant response rating, Foxtail, Green [10, 23]: 90
Plant response rating, Foxtail, Green [10, 24]: 100
Plant response rating, Foxtail, Green [10, 25]: 100
Plant response rating, Pigweed [11, 18]: 0
Plant response rating, Pigweed [11, 19]: 0
Plant response rating, Pigweed [11, 20]: 0
Plant response rating, Pigweed [11, 21]: 0
Plant response rating, Pigweed [11, 22]: 0
Plant response rating, Pigweed [11, 23]: 0
Plant response rating, Pigweed [11, 24]: 0
Plant response rating, Pigweed [11, 25]: 0
Plant response rating, Barley, Spring [12, 18]: 0
Plant response rating, Barley, Spring [12, 19]: 40
Plant response rating, Barley, Spring [12, 20]: 40
Plant response rating, Barley, Spring [12, 21]: 100
Plant response rating, Barley, Spring [12, 22]: 0
Plant response rating, Barley, Spring [12, 23]: 0
Plant response rating, Barley, Spring [12, 24]: 40
Plant response rating, Barley, Spring [12, 25]: 75
Plant response rating, Mustard, Wild [13, 18]: 0
Plant response rating, Mustard, Wild [13, 19]: 0
Plant response rating, Mustard, Wild [13, 20]: 0
Plant response rating, Mustard, Wild [13, 21]: 0
Plant response rating, Mustard, Wild [13, 22]: 0
Plant response rating, Mustard, Wild [13, 24]: 0
Plant response rating, Mustard, Wild [13, 25]: 0
Plant response rating, Oat, Wild (wild oat (Avena fatua); [18]): 25
Plant response rating, Oat, Wild (wild oat (Avena fatua); [19]): 90
Plant response rating, Oat, Wild (wild oat (Avena fatua); [20]): 100
Plant response rating, Oat, Wild (wild oat (Avena fatua); [21]): 100
Plant response rating, Oat, Wild (wild oat (Avena fatua); [22]): 0
Plant response rating, Oat, Wild (wild oat (Avena fatua); [23]): 0
Plant response rating, Oat, Wild (wild oat (Avena fatua); [24]): 75
Plant response rating, Oat, Wild (wild oat (Avena fatua); [25]): 85
Plant response rating, Windgrass [14, 18]: 0
Plant response rating, Windgrass [14, 19]: 0
Plant response rating, Windgrass [14, 20]: 50
Plant response rating, Windgrass [14, 21]: 70
Plant response rating, Windgrass [14, 22]: 0
Plant response rating, Windgrass [14, 23]: 30
Plant response rating, Windgrass [14, 24]: 75
Plant response rating, Windgrass [14, 25]: 90
Plant response rating, Barley, Winter [15, 18]: 0
Plant response rating, Barley, Winter [15, 19]: 10
Plant response rating, Barley, Winter [15, 20]: 40
Plant response rating, Barley, Winter [15, 21]: 95
Plant response rating, Barley, Winter [15, 22]: 0
Plant response rating, Barley, Winter [15, 23]: 15
Plant response rating, Barley, Winter [15, 24]: 50
Plant response rating, Barley, Winter [15, 25]: 50
Plant response rating, Wheat, Winter [16, 18]: 0
Plant response rating, Wheat, Winter [16, 19]: 10
Plant response rating, Wheat, Winter [16, 20]: 65
Plant response rating, Wheat, Winter [16, 21]: 95
Plant response rating, Wheat, Winter [16, 22]: 0
Plant response rating, Wheat, Winter [16, 23]: 0
Plant response rating, Wheat, Winter [16, 24]: 50
Plant response rating, Wheat, Winter [16, 25]: 70

Cc1cc(-c2ccc(Cl)cc2)nn1-c1c(OC(=O)c2cccc(Cl)c2)cnn(C)c1=O [Compound 32]
Canarygrass plant response rating [1]: 0
Plant response rating, Canarygrass ([1]; 16 g ai/ha, scale 0 to 100): 10
Plant response rating, Canarygrass [1, 29]: 10
Plant response rating, Canarygrass [1, 17]: 30
Chickweed plant response rating [2]: 0
Plant response rating, Chickweed ([2]; 16 g ai/ha, scale 0 to 100): 0
Plant response rating, Chickweed [2, 29]: 0
Plant response rating, Chickweed [2, 17]: 20
Windgrass plant response rating [3]: 0
Plant response rating, Windgrass ([3]; 16 g ai/ha, scale 0 to 100): 0
Plant response rating, Windgrass [3, 17]: 50
Barley plant response rating [4]: 0
Plant response rating, Barley ([4]; 16 g ai/ha): 0
Plant response rating, Barley ([4]; 31 g ai/ha): 0
Plant response rating, Barley ([4]; 62 g ai/ha): 0
Plant response rating, Ryegrass, Italian [5, 22]: 0
Plant response rating, Ryegrass, Italian [5, 23]: 20
Plant response rating, Ryegrass, Italian [5, 25]: 75
Plant response rating, Bluegrass [6, 22]: 0
Plant response rating, Bluegrass [6, 23]: 0
Plant response rating, Bluegrass [6, 24]: 0
Plant response rating, Bluegrass [6, 25]: 20
Plant response rating, Blackgrass [7, 24]: 75
Plant response rating, Blackgrass [7, 25]: 98
Plant response rating, Canarygrass [8, 26]: 0
Plant response rating, Canarygrass [8, 27]: 0
Plant response rating, Canarygrass [8, 28]: 75
Plant response rating, Canarygrass [8, 17]: 90
Plant response rating, Bromegrass, Downy [9, 22]: 0
Plant response rating, Bromegrass, Downy [9, 23]: 20
Plant response rating, Bromegrass, Downy [9, 24]: 20
Plant response rating, Bromegrass, Downy [9, 25]: 60
Plant response rating, Foxtail, Green [10, 22]: 40
Plant response rating, Foxtail, Green [10, 23]: 75
Plant response rating, Foxtail, Green [10, 24]: 100
Plant response rating, Foxtail, Green [10, 25]: 100
Plant response rating, Pigweed [11, 22]: 0
Plant response rating, Pigweed [11, 23]: 0
Plant response rating, Pigweed [11, 24]: 0
Plant response rating, Pigweed [11, 25]: 0
Plant response rating, Barley, Spring [12, 22]: 0
Plant response rating, Barley, Spring [12, 23]: 0
Plant response rating, Barley, Spring [12, 24]: 25
Plant response rating, Barley, Spring [12, 25]: 75
Plant response rating, Mustard, Wild [13, 22]: 0
Plant response rating, Mustard, Wild [13, 23]: 0
Plant response rating, Mustard, Wild [13, 24]: 0
Plant response rating, Oat, Wild (wild oat (Avena fatua); [22]): 0
Plant response rating, Oat, Wild (wild oat (Avena fatua); [23]): 10
Plant response rating, Oat, Wild (wild oat (Avena fatua); [24]): 65
Plant response rating, Oat, Wild (wild oat (Avena fatua); [25]): 70
Plant response rating, Windgrass [14, 22]: 0
Plant response rating, Windgrass [14, 23]: 0
Plant response rating, Windgrass [14, 24]: 0
Plant response rating, Windgrass [14, 25]: 75
Plant response rating, Barley, Winter [15, 22]: 0
Plant response rating, Barley, Winter [15, 23]: 0
Plant response rating, Barley, Winter [15, 24]: 20
Plant response rating, Barley, Winter [15, 25]: 65
Plant response rating, Wheat, Winter [16, 22]: 0
Plant response rating, Wheat, Winter [16, 23]: 20
Plant response rating, Wheat, Winter [16, 24]: 35
Plant response rating, Wheat, Winter [16, 25]: 65
